According to paper PMC3303745, “Elucidation of the Rotavirus NSP4-Caveolin-1 and -Cholesterol Interactions Using Synthetic Peptides” (Journal of Amino Acids, 2012):
Several values for one entry are separate records, joined by “and”; a condition that tells them apart may be missing. Equal values may be shown once.

What was measured:
RV-infected MDCK cells = assay: Treatment of RV-infected MDCK cells with cholesterol-altering drugs, NSP4 transport by immunofluorescence; assay type: cell-based; conditions: RV-infected MDCK cells (MOI 2, 12 hpi), treated in triplicate at recommended effective dose; stained with anti-NSP4_150-175 and anti-rabbit-IgG-FITC; compared to untreated infected cells
Procedure: MDCK cells were infected with RV at a multiplicity of infection (MOI) of 2 and incubated for 12 hpi. The cells were washed and treated in triplicate with the cholesterol altering drugs, fillipin [40], and nystatin [41] exactly as described. Chlorpromazine and nocodazole were utilized as negative and positive controls, respectively. Cells were fixed with methanol : acetone (1 : 1) at −20°C for 10 min, blocked with 5% dry milk for 20 min, incubated with anti-NSP4_150-175 and anti-rabbit-IgG-FITC, and examined under a UV microscope (Zeiss). The cell surface carefully was observed and the presence or absence of fluorescence carefully noted. Comparisons also were made to untreated cells. Primary and secondary antibody controls were negative. To ensure the lack of drug toxicity, a separate set of cells were treated and then stained with trypan blue.

[1] = cited from earlier work
NSP4_112-140 [2] = biological target: T1, NSP4_112-140 (Rotavirus A, UniProt P04512); assay type: physicochemical
[3] = Circular dichroism, percent α-helix of single peptides; assay type: physicochemical; conditions: CD, from molar ellipticity at 222 nm, mean ± SD, n = 4; for Percent α-helix, 50% TFE: peptide 15–35 μM in 50% trifluoroethanol; for Percent α-helix, 1 mM SUV: peptide 15–35 μM with 1 mM SUV (55 : 35 : 10, POPC/cholesterol/DOPS); for Percent α-helix, Aqueous Buffer: peptide 15–35 μM, 10 mM potassium phosphate buffer pH 7.4
NSP4_112-140 [4] = biological target: T1, NSP4_112-140; assay type: binding
[5] = biological target: T2, Cy3-N-Cav_(19-40) (caveolin-1 aa 19-40, Cy3-labelled) (not fully specified); assay: other fluorescence titration; conditions: both partners purified
T2 construct: also called Cy3-Cav_(19-40); N-caveolin-1_(19-40)
T2 peptide: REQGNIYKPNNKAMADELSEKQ

Row | Molecule | Results: NSP4 transport to the cell surface (RV-infected MDCK cells) | % helical content, Observed, 1 mM SUV (NSP4_112-140 [2]) [%] | % helical content, Observed, 50% TFE (NSP4_112-140 [2]) [%] | % helical content, Observed, Aqueous buffer (NSP4_112-140 [2]) [%] | % helical content, Theoretical, 1 mM SUV (NSP4_112-140 [2]) [%] | % helical content, Theoretical, 50% TFE (NSP4_112-140 [2]) [%] | % helical content, Theoretical, Aqueous buffer (NSP4_112-140 [2]) [%] | Percent α-helix, 50% TFE [3] | Percent α-helix, 1 mM SUV [3] [%] | Percent α-helix, Aqueous Buffer [3] [%] | other results
1 | CN(C)CCCN1c2ccccc2Sc2ccc(Cl)cc21 [Chlorpromazine] | Normal NSP4 transport to the PM. |  |  |  |  |  |  |  |  |  | 
2 | CCCCC[C@@H](O)[C@H]1C(=O)O[C@H](C)[C@@H](O)/C=C/C=C/C=C/C=C/C=C(\C)[C@@H](O)C[C@H](O)C[C@H](O)C[C@H](O)C[C@H](O)C[C@H](O)C[C@@H]1O [Fillipin] | Disrupted NSP4 transport |  |  |  |  |  |  |  |  |  | 
3 | COC(=O)Nc1nc2ccc(C(=O)c3cccs3)cc2[nH]1 [Nocodazole] | Disrupted NSP4 transport |  |  |  |  |  |  |  |  |  | 
4 | C[C@@H]1[C@H](O)[C@@H](C)/C=C/C=C/CC/C=C/C=C/C=C/C=C/C(O[C@H]2O[C@H](C)[C@@H](O)[C@H](N)[C@@H]2O)CC2O[C@](O)(CC(O)C(O)CCC(O)CC(O)CC(O)CC(=O)O[C@H]1C)CC(O)C2C(=O)O (stereo partly shown) [Nystatin] | Disrupted NSP4 transport |  |  |  |  |  |  |  |  |  | 
5 | CC(C)CCC[C@@H](C)[C@H]1CC[C@H]2[C@@H]3CC=C4C[C@@H](O)CC[C@]4(C)[C@H]3CC[C@]12C [cholesterol] |  |  |  |  |  |  |  |  |  |  | critical micellar concentration (CMC) [1]: 25 to 40 nM
6 | EAVGKIFSNVRINLQKEI [C-Cav161-178, caveolin-1 C-terminal peptide aa 161–178] |  | 51.9 ± 2.4 | 44.2 ± 10.6 | 25.0 ± 1.7 | 49.5 ± 6.2 | 67.8 ± 3.2 | 35.3 ± 1.6 | 57.4 ± 4.4% | 42.5 ± 10.6 | 43.4 ± 3.8 | 
7 | FEDVIAEPEGTHS [Cav68-80, caveolin-1 central region peptide aa 68–80, negative control] |  | 31.3 ± 0.2 | 45.9 ± 2.8 | 24.2 ± 0.3 | 37.5 ± 1.9 | 49.8 ± 1.8 | 23.9 ± 0.7 | 23.1% and 24.4 ± 0.8% | 21.4 ± 2.0 | 23.4 ± 0.9 | 
8 | SGGKYVDSEGHLYTVPIRE [N-Cav2-20, caveolin-1 N-terminal peptide aa 2–20] |  | 34.7 ± 6.0 | 46.3 ± 7.2 | 21.7 ± 0.8 | 37.7 ± 1.9 | 47.6 ± 1.8 | 23.6 ± 2.6 | 16.5 ± 0.9% | 18.5 ± 1.9 | 18.9 ± 2.8 | fold increase in affinity in presence of SUV over absence of membranes (NSP4_112-140 [4]): ~3 fold
9 | MIDKLTTREIEQVELLKRIYDKLTVQTTG (also called NSP4 (aa 112-140)) [NSP4_(112-140) peptide (rotavirus nonstructural protein 4, aa 112-140)] |  |  |  |  |  |  |  |  |  |  | Kd [5]: 40 nM
